Some test systems named below: UACC-257 melanoma; KM12 colon; TK-10 renal; OVCAR-8 ovarian; MDA-N; ACHN renal; CAKI-1 renal; HCC-2998 colon; HT29 colon.
What all share (assay): DTP human tumour cell line panel, 48 h

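Method: 48-hour compound exposure of cells in 96-well plates, five concentrations, linear interpolation of endpoints. TGI is the concentration that stops growth completely.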 Where a SMILES comes first, the peptide text is derived from it. [ ]: non-standard residue; d: D form. The star is where a group is joined. Cbz = O=C(OCc1ccccc1)*; Aib = CC(C)(N)C(=O)O; OBn = c1ccc(CO*)cc1

For 21 molecules, TGI results are on record in PubChem BioAssay (NCI).

As usually defined, the TGI is the concentration giving total growth inhibition. For `CCOC(=O)C(NC(=O)CC)(N1CCN(c2cc3c(cc2F)c(=O)c(C(=O)O)cn3C2CC2)CC1)C(F)(F)F` (centres undefined), the TGI with UACC-257 melanoma, in the assay on KM12 colon, with TK-10 renal, with OVCAR-8 ovarian, in the assay on MDA-N and in the assay with ACHN renal was > 100 µM in each case. The TGI in the assay on CAKI-1 renal, in the assay with HCC-2998 colon and with HT29 colon was > 100 µM in each case.

Turning to `C[C@@H]1CCC2[C@@H](C)[C@@H](O[C@H]3O[C@@H]4O[C@@]5(C)CCC6[C@H](C)CCC([C@H]3C)[C@]64OO5)O[C@@H]3O[C@@]4(C)CCC1[C@@]23OO4` (some centres undefined), the TGI in the assay with UACC-257 melanoma, in the assay with KM12 colon, in the assay on TK-10 renal, in the assay with OVCAR-8 ovarian, in the assay on MDA-N and in the assay on ACHN renal was > 25 µM throughout. Moreover, the TGI in the assay with CAKI-1 renal, in the assay with HCC-2998 colon and in the assay with HT29 colon was > 25 µM throughout.

For `CC(NC(=O)C(C)(C)NC(=O)C(CC(=O)OCc1ccccc1)NC(=O)OCc1ccccc1)C(N)=O` (centres undefined) (Cbz-Asp(OBn)-[Aib]-Ala-NH2; configuration not given here), the TGI in the assay on UACC-257 melanoma, in the assay on KM12 colon, in the assay with TK-10 renal, in the assay on OVCAR-8 ovarian, in the assay on MDA-N and with ACHN renal was > 100 µM each time. The TGI in the assay with CAKI-1 renal, in the assay on HCC-2998 colon and in the assay with HT29 colon was > 100 µM throughout.

In the case of `CC(C)(C)c1ccc2c(c1)C#Cc1cc3c(cc1OCCCO2)C#Cc1cc(C(C)(C)C)ccc1OCCCO3`, the TGI in the assay on UACC-257 melanoma, in the assay with KM12 colon, with TK-10 renal, with OVCAR-8 ovarian, in the assay on MDA-N and with ACHN renal was > 100 µM each time. Further, the TGI in the assay with CAKI-1 renal, in the assay with HCC-2998 colon and in the assay on HT29 colon was > 100 µM throughout.

For the molecule `CC(C)(CO)CNc1nc(N)nc(Cl)c1/C=N/O`, the TGI with UACC-257 melanoma, in the assay on KM12 colon, in the assay with TK-10 renal, with OVCAR-8 ovarian, in the assay on MDA-N and in the assay with ACHN renal was > 100 µM each time. The TGI in the assay with CAKI-1 renal, in the assay with HCC-2998 colon and in the assay on HT29 colon was > 100 µM in each case.

`CN1CC[C@]2(c3cccc(O)c3)CC(=O)/C(=C/c3ccccc3)[C@@H]1C2`: the TGI in the assay with UACC-257 melanoma stood at 11.7 µM; in the assay with KM12 colon, 11.4 µM; with TK-10 renal, 27.1 µM; in the assay with OVCAR-8 ovarian, 10.5 µM; in the assay on MDA-N it was 3.94 µM; with ACHN renal it was 6.74 µM. Besides, the values for the TGI with CAKI-1 renal, with HCC-2998 colon and in the assay on HT29 colon were 6.04 µM, 7.16 µM and 7.55 µM, respectively.

For `CC(C)Oc1cccc(N2C(=NCc3c[nH]c4ccccc34)Nc3ccncc3S2(=O)=O)c1`, the TGI with UACC-257 melanoma is > 100 µM; with KM12 colon it was > 100 µM; with TK-10 renal it was 97.4 µM; in the assay on OVCAR-8 ovarian, > 100 µM; in the assay with MDA-N, > 100 µM; with ACHN renal, > 100 µM. Further, the results for the TGI in the assay with CAKI-1 renal, with HCC-2998 colon and in the assay with HT29 colon were > 100 µM, 97.9 µM and > 100 µM, respectively.

As to `O=C1c2cccc3cccc(c23)C(=O)N1CCCNCCCCNCCCNCCCN1C(=O)c2cccc3cccc(c23)C1=O`, the TGI in the assay with UACC-257 melanoma is 3.06 µM; with KM12 colon, 1.83 µM; in the assay on TK-10 renal it was 12.1 µM; with OVCAR-8 ovarian, 3.99 µM; with MDA-N, 2.11 µM; in the assay on ACHN renal, 7.43 µM. Moreover, the TGI was determined as 17.3 µM in the assay with CAKI-1 renal, 1.86 µM with HCC-2998 colon and 1.15 µM in the assay with HT29 colon.

Turning to `Clc1ccc(C=NC23CC4CC(CC(C4)C2)C3)c(Cl)c1`, the TGI with UACC-257 melanoma, with KM12 colon, with TK-10 renal, with OVCAR-8 ovarian, in the assay with MDA-N and with ACHN renal was > 10 µM each time. For the same molecule, the TGI with CAKI-1 renal, in the assay on HCC-2998 colon and in the assay on HT29 colon was > 10 µM throughout.

For `O=[N+]([O-])c1cc2oc(CSc3ccccc3)nc2cc1Cl`, the TGI with UACC-257 melanoma is 82.2 µM; with KM12 colon, > 100 µM; with TK-10 renal it was > 100 µM; with OVCAR-8 ovarian, > 100 µM; in the assay with MDA-N, > 100 µM; in the assay on ACHN renal it was > 100 µM. The figures for the TGI with CAKI-1 renal, in the assay with HCC-2998 colon and with HT29 colon were > 100 µM, 64.5 µM and > 100 µM, respectively.

With `CC1OC(O[C@H]2C3C=CO[C@@H](OC4OC(CO)C(O)C(O)C4O)C3[C@@]3(COC(=O)/C=C/c4ccccc4)O[C@@H]23)C(O)C(O)C1O` (some centres undefined), the concentration for total growth inhibition (TGI) in the assay with UACC-257 melanoma, with KM12 colon, with TK-10 renal, with OVCAR-8 ovarian, with MDA-N and with ACHN renal was > 100 µM throughout. Besides, the TGI in the assay with CAKI-1 renal, in the assay with HCC-2998 colon and in the assay with HT29 colon was > 100 µM in each case.

Turning to `COc1cc2c(cc1OCCCN1C(=O)c3cccc4cccc(c34)C1=O)N=C[C@@H]1CCCN1C2=O`, the TGI is > 100 µM in the assay with UACC-257 melanoma; > 49.8 µM with KM12 colon; > 100 µM in the assay on TK-10 renal; > 100 µM with OVCAR-8 ovarian; > 100 µM in the assay with MDA-N; > 63.4 µM in the assay with ACHN renal. Also, the TGI in the assay with CAKI-1 renal was > 58.1 µM; in the assay with HCC-2998 colon, > 100 µM; with HT29 colon, > 100 µM.

Regarding `O=C1CSC2(CC(/C=C/c3cccs3)=NN2c2cccc(S(=O)(=O)O)c2)N1c1nc2ccccc2s1` (centres undefined), the TGI in the assay with UACC-257 melanoma, with KM12 colon, with TK-10 renal, in the assay on OVCAR-8 ovarian, with MDA-N and with ACHN renal was > 100 µM throughout. Also, the TGI in the assay on CAKI-1 renal, with HCC-2998 colon and with HT29 colon was > 100 µM each time.

With `Clc1sc(Cl)c2c1[C@@H](Cl)C[C@@H]2Br`, the TGI in the assay with UACC-257 melanoma, with KM12 colon, with TK-10 renal, in the assay with OVCAR-8 ovarian, in the assay on MDA-N and in the assay with ACHN renal was > 100 µM throughout. Further, the TGI with CAKI-1 renal, in the assay on HCC-2998 colon and with HT29 colon was > 100 µM in each case.

Regarding `Cn1ncc2c(NCc3ccccc3)ncnc21`, the TGI with UACC-257 melanoma, in the assay on KM12 colon, in the assay with TK-10 renal, in the assay with OVCAR-8 ovarian, in the assay with MDA-N and in the assay on ACHN renal was > 100 µM in each case. Moreover, the TGI with CAKI-1 renal, in the assay with HCC-2998 colon and in the assay with HT29 colon was > 100 µM in each case.

For `Cc1ccc2c(c1)c1ccc3c(c1n2C)C(=O)C=CC3=O`, the TGI in the assay with UACC-257 melanoma is 7.9 µM; with KM12 colon, > 10 µM; in the assay with TK-10 renal it was 3.76 µM; in the assay with OVCAR-8 ovarian, 6.01 µM; in the assay with MDA-N it was 3.65 µM; in the assay with ACHN renal, 3.02 µM. Moreover, the TGI was 4.17 µM in the assay with CAKI-1 renal, > 10 µM in the assay on HCC-2998 colon and > 10 µM with HT29 colon.

As for `N#Cc1sc2c(c1OC(=O)c1ccc(C(F)(F)F)cc1)c(=O)n(-c1ccccc1)c(=S)n2-c1ccccc1`, the TGI in the assay with UACC-257 melanoma was > 100 µM; with KM12 colon, > 100 µM; with TK-10 renal, > 100 µM; with OVCAR-8 ovarian, > 100 µM; in the assay with MDA-N, > 100 µM; in the assay with ACHN renal, 93.5 µM. Moreover, the TGI in the assay with CAKI-1 renal was 90.9 µM; in the assay on HCC-2998 colon, > 100 µM; in the assay with HT29 colon, 82.5 µM.

Take `Cn1c2ccccc2c2c(=S)c3ccccc3ccc21`: the TGI in the assay with UACC-257 melanoma, with KM12 colon, in the assay with TK-10 renal, in the assay with OVCAR-8 ovarian, in the assay on MDA-N and in the assay on ACHN renal was > 100 µM throughout. For the same molecule, the TGI in the assay with CAKI-1 renal, in the assay with HCC-2998 colon and in the assay on HT29 colon was > 100 µM in each case.

On to `O=C(CCSC1=NCCCN1)c1ccc(F)cc1`, for which the TGI in the assay on UACC-257 melanoma was 36.5 µM; in the assay with KM12 colon, 46.6 µM; in the assay on TK-10 renal, 30.8 µM; in the assay on OVCAR-8 ovarian, > 94.3 µM; with MDA-N, 32.4 µM; in the assay with ACHN renal, 31.1 µM. In addition, the TGI with CAKI-1 renal worked out at 46.9 µM; in the assay with HCC-2998 colon it was 36.5 µM; with HT29 colon it was 40.5 µM.

Take `N#CC(c1ccccc1)N(CCOCCOCCN(C(=O)c1ccccc1)C(C#N)c1ccccc1)C(=O)c1ccccc1` (centres undefined): the total growth inhibition concentration (TGI) in the assay with UACC-257 melanoma, with KM12 colon, in the assay on TK-10 renal, in the assay with OVCAR-8 ovarian, in the assay with MDA-N and in the assay with ACHN renal was > 100 µM in each case. Also, the TGI in the assay on CAKI-1 renal, with HCC-2998 colon and with HT29 colon was > 100 µM throughout.

`Cc1nc2ccccc2c(-n2cccn2)c1CCn1cccn1`: the TGI with UACC-257 melanoma, in the assay on KM12 colon, in the assay with TK-10 renal, in the assay on OVCAR-8 ovarian, with MDA-N and with ACHN renal was > 100 µM each time. For the same molecule, the TGI in the assay on CAKI-1 renal, with HCC-2998 colon and with HT29 colon was > 100 µM each time.
